SMILES strings stand for the structures. Like-named read-outs stand apart in the source and are kept apart here. Where only a bound is given, the exact number is not on record here.

For assay [1], the target named is T1, LasB (Pseudomonas aeruginosa, UniProt P14756).
T1 construct: uses as source of enzyme dialysed supernatant from P. aeruginosa PAO1; endogenous in cells; host or cells: P. aeruginosa PAO1 culture supernatant, filtered and dialysed
Briefly: Elastin assay to determine % inhibition (Elastin Congo-Red, dialysed culture supernatant). The assay is classed as biochemical, P. aeruginosa PAO1. Particulars: read-out: Elastin hydrolysis % inhibition @ 50 / 25 µM inhibitor concentration. As to the method: (§1) Experiments were therefore conducted (1) to measure the potency of inhibition of compounds of the invention against purified Pseudomonas aeruginosa LasB enzyme and also experiments were conducted (2) to measure the ability of compounds of the invention to inhibit LasB-catalysed elastin degradation. The first assay uses a commercial fluorescent synthetic peptide and purified LasB enzyme. The LasB hydrolysis kinetics are measured allowing the determination of the IC50 and Ki of the inhibitors; the second is a more physiological assay using dialysed Pseudomonas aeruginosa supernatant as source of enzyme, plus its natural substrate Elastin. It is an "end point assay" that determines the percentage of LasB inhibition by each compound for one particular time point and inhibitor concentration. Technical details are described below:
The Elastin assay uses as source of enzyme dialysed supernatant from P. aeruginosa PAO1 and the Elastin Congo-Red as substrate. The natural LasB substrate, elastin, is complexed with the congo-red dye (Elastin Congo-Red, ECR). The elastolysis activity from the culture supernatant will degrade elastin and release the congo-red dye into the supernatant. This red dye release can be measured with a spectrophotometer.
Method: To determine LasB elastase activity and assess compound inhibition, an overnight culture of P. aeruginosa strain PAO1 is diluted in LB medium. After reaching an OD600nm of 0.6, this culture is diluted and incubated for additional 18-24 hours in a shaking incubator. Culture supernatants are recovered by centrifugation and filtrated through a […] filter. These supernatants are dialysed (filtration molecules < 20kDa) into a 50 mM Tris-HCl pH 7.4, 2.5 mM CaCl2 solution at 4°C under agitation for 24 hours. Supernatant dialysed is then mixed volume/volume with the ECR suspension (20 mg/mL of ECR in 100 mM Tris-HCl pH 7.4 buffer supplemented with 1 mM CaCl2) supplemented with Triton X100 (final concentration of 0.01%) in presence of DMSO (positive control) and/or different concentrations of compound (routinely 50 to 1.56 µM). As a negative control, the dialysed supernatant is replaced by Tris-HCl solution (50 mM Tris-HCl pH 7.4, 2.5 mM CaCl2). The mixed reaction is then incubated overnight in a 37°C shaking incubator. The reaction supernatant is recovered by centrifugation and the release of congo-red is measured by its absorbance at 495 nm (OD495nm).
Percentage inhibition is determined using the following equation: ((OD495nmvalue of positive control−OD495nmvalue of negative control)−(OD495nmvalue of treated supernatant−OD495nmvalue of positive control))/(OD495nmvalue of positive control−OD495nmvalue of negative control) × 100. [formula]

Assay [2] has as its target T2, purified LasB protein from P. aeruginosa (Pseudomonas aeruginosa, UniProt P14756).
T2 construct: purchased Merck or Charles River Laboratories
In words: Fluorometric assay to determine Ki (Abz-Ala-Gly-Leu-Ala-p-Nitro-Benzyl-Amide substrate). In kind it is biochemical. As to the method:
as §1
This assay uses commercially available substrate (Abz-Ala-Gly-Leu-Ala-p-Nitro-Benzyl-Amide (Ex: 340 nm, Em: 415 nm) from Peptide International) and purified LasB protein from P. aeruginosa (provided by Merck or Charles River Laboratories). It is performed to determine LasB elastase activity and assess compound inhibition in 96-well plate format. All compounds of Formula (I) were assessed using the method described below.
Method: 10 to 140 ng/ml purified LasB is incubated with 250 µM Abz-Ala-Gly-Leu-Ala-p-Nitro-Benzyl-Amide in 50 mM Tris-HCl pH 7.4, 2.5 mM CaCl2, 0.01% of Triton X100 at 37°C. LasB activity (corresponding to fluorescence emission induced by substrate hydrolysis) is measured over 30 min at 37°C with a fluorescence plate reader such as the Perkin Elmer Envision or similar. Different range of inhibitor concentrations are routinely assessed depending of inhibitor potency from 0.0016 to 200 µM (2-fold dilutions series) in order to determine IC50.
The equation used to calculate the Ki from IC50 is: Ki = IC50 / (1+([S]/Km)) where [S] = 250 µM and Km = 214 µM.

T1 sequence (P14756 198-498): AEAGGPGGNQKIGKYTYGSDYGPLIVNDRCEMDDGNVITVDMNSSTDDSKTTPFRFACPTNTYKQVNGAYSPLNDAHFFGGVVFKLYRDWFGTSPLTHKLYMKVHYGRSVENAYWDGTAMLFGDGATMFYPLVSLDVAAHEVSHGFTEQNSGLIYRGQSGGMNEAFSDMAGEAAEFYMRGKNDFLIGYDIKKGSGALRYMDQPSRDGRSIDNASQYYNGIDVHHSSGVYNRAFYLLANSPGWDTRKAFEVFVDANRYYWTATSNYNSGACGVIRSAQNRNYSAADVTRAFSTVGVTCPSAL
T2 sequence (P14756 198-498): as above

As to `O=C(O)CC1(C(=O)NCc2ncc(-c3ccccc3)s2)Cc2ccccc2C1` [Example 2, 2-[2-[(5-phenylthiazol-2-yl)methylcarbamoyl]indan-2-yl]acetic acid], the inhibition at 25 µM in assay [1] lay within 10 to 60%. The Ki – broadly, the equilibrium dissociation constant of an inhibitor or competing ligand from its target – in assay [2] lay in the range of 200 to 10000 nM.

On to `O=C(O)CC1(C(=O)NCc2nc(-c3ccccc3)cs2)Cc2cc(F)c(F)cc2C1` [Example 3, 2-[5,6-difluoro-2-[(4-phenylthiazol-2-yl)methylcarbamoyl]indan-2-yl]acetic acid], for which the inhibition at 25 µM in assay [1] was more than 75%. This molecule displayed a Ki in assay [2] of less than 50 nM.

Take `COc1cccc(-c2csc(CNC(=O)C3(CC(=O)O)Cc4ccccc4C3)n2)c1` [Example 5, 2-[2-[[4-(3-methoxyphenyl)thiazol-2-yl]methylcarbamoyl]indan-2-yl]acetic acid]: the inhibition at 25 µM in assay [1] is 60 to 75%. Further, the Ki in assay [2] lay in the range of 50 to 200 nM.

As to `COc1ccc(-c2csc(CNC(=O)C3(CC(=O)O)Cc4ccccc4C3)n2)cc1` [Example 6, 2-[2-[[4-(4-methoxyphenyl)thiazol-2-yl]methylcarbamoyl]indan-2-yl]acetic acid], the inhibition at 25 µM in assay [1] was more than 75%. Further, the Ki in assay [2] fell in the range of 50 to 200 nM.

Turning to `O=C(O)CC1(C(=O)NCc2nc(-c3ccc(Cl)cc3)cs2)Cc2ccccc2C1` [Example 7, 2-[2-[[4-(4-chlorophenyl)thiazol-2-yl]methylcarbamoyl]indan-2-yl]acetic acid], the inhibition at 25 µM in assay [1] fell in the range of 60 to 75%. In assay [2], this molecule returned a Ki of 50 to 200 nM.

Turning to `O=C(O)CC1(C(=O)NCc2nc(-c3cccnc3)cs2)Cc2ccccc2C1` [Example 8, 2-[2-[[4-(3-pyridyl)thiazol-2-yl]methylcarbamoyl]indan-2-yl]acetic acid], in assay [1], the inhibition at 25 µM fell in the range of 60 to 75%. For the same molecule, in assay [2], the Ki lay within 50 to 200 nM.

Take `O=C(O)CC1(C(=O)NCc2nc(-c3ccccn3)cs2)Cc2ccccc2C1` [Example 9, 2-[2-[[4-(2-pyridyl)thiazol-2-yl]methylcarbamoyl]indan-2-yl]acetic acid]: in assay [1], the inhibition at 25 µM was 60 to 75%. In assay [2], this molecule had a Ki of 200 to 10000 nM.

With `O=C(O)CC1(C(=O)NCc2nc(-c3ccccc3O)cs2)Cc2ccccc2C1` [Example 10, 2-[2-[[4-(2-hydroxyphenyl)thiazol-2-yl]methylcarbamoyl]indan-2-yl]acetic acid], the inhibition at 25 µM in assay [1] was in the range of 10 to 60%. For the same molecule, the Ki in assay [2] was in the range of 50 to 200 nM.

Consider `O=C(O)CC1(C(=O)NCc2nc(-c3ccc(O)cc3)cs2)Cc2ccccc2C1` [Example 11, 2-[2-[[4-(4-hydroxyphenyl)thiazol-2-yl]methylcarbamoyl]indan-2-yl]acetic acid], for which the inhibition at 25 µM in assay [1] is 60 to 75%. Besides, the Ki in assay [2] was in the range of 50 to 200 nM.

On to `O=C(O)CC1(C(=O)NCc2nc(-c3cccc(O)c3)cs2)Cc2ccccc2C1` [Example 12, 2-[2-[[4-(3-hydroxyphenyl)thiazol-2-yl]methylcarbamoyl]indan-2-yl]acetic acid], for which, in assay [1], the inhibition at 25 µM fell in the range of 60 to 75%. In assay [2], the Ki fell in the range of 50 to 200 nM.

As to `O=C(O)CC1(C(=O)NCc2nc(-c3ccccc3OCCO)cs2)Cc2ccccc2C1` [Example 13, 2-[2-[[4-[2-(2-hydroxyethoxy)phenyl]thiazol-2-yl]methylcarbamoyl]indan-2-yl]acetic acid], the inhibition at 25 µM in assay [1] is 60 to 75%. The inhibition constant Ki in assay [2] was 50 to 200 nM.

For the molecule `NCCOc1ccccc1-c1csc(CNC(=O)C2(CC(=O)O)Cc3ccccc3C2)n1` [Example 14, 2-[2-[[4-[2-(2-aminoethoxy)phenyl]thiazol-2-yl]methylcarbamoyl]indan-2-yl]acetic acid], the inhibition at 25 µM in assay [1] fell in the range of 10 to 60%. In assay [2], this molecule had an inhibition constant (Ki) of 200 to 10000 nM.

As to `CN(C)CCNC(=O)c1ccc(-c2csc(CNC(=O)C3(CC(=O)O)Cc4ccccc4C3)n2)cc1` [Example 15, 2-[2-[[4-[4-[2-(dimethylamino)ethylcarbamoyl]phenyl]thiazol-2-yl]methylcarbamoyl]indan-2-yl]acetic acid], the inhibition at 25 µM in assay [1] is 60 to 75%. The Ki in assay [2] lay within 200 to 10000 nM.

Take `CN1CCN(C(=O)c2ccc(-c3csc(CNC(=O)C4(CC(=O)O)Cc5ccccc5C4)n3)cc2)CC1` [Example 16, 2-[2-[[4-[4-(4-methylpiperazine-1-carbonyl)phenyl]thiazol-2-yl]methylcarbamoyl]indan-2-yl]acetic acid]: the inhibition at 25 µM in assay [1] lay within 60 to 75%. Also, the inhibition constant Ki in assay [2] was in the range of 200 to 10000 nM.

With `CN(C)[C@@H]1CCN(C(=O)c2ccc(-c3csc(CNC(=O)C4(CC(=O)O)Cc5ccccc5C4)n3)cc2)C1` [Example 19, 2-[2-[[4-[4-[(3R)-3-(dimethylamino)pyrrolidine-1-carbonyl]phenyl]thiazol-2-yl]methylcarbamoyl]indan-2-yl]acetic acid], the inhibition at 25 µM in assay [1] lay in the range of 60 to 75%. This molecule gave a Ki in assay [2] of 200 to 10000 nM.

On to `CN(C)C1CN(C(=O)c2ccc(-c3csc(CNC(=O)C4(CC(=O)O)Cc5ccccc5C4)n3)cc2)C1` [Example 20, 2-[2-[[4-[4-[3-(dimethylamino)azetidine-1-carbonyl]phenyl]thiazol-2-yl]methylcarbamoyl]indan-2-yl]acetic acid], for which, in assay [1], the inhibition at 25 µM is 60 to 75%. The Ki in assay [2] lay in the range of 200 to 10000 nM.

`CN1CCN(C(=O)c2cccc(-c3csc(CNC(=O)C4(CC(=O)O)Cc5ccccc5C4)n3)c2)CC1` [Example 23, 2-[2-[[4-[3-(4-methylpiperazine-1-carbonyl)phenyl]thiazol-2-yl]methylcarbamoyl]indan-2-yl]acetic acid]: in assay [1], the inhibition at 25 µM was in the range of 60 to 75%. Also, the inhibition constant (Ki) in assay [2] fell in the range of 200 to 10000 nM.

`CN1CCN(c2ccc(-c3csc(CNC(=O)C4(CC(=O)O)Cc5ccccc5C4)n3)cc2)CC1` [Example 26, 2-[2-[[4-[4-(4-methylpiperazin-1-yl)phenyl]thiazol-2-yl]methylcarbamoyl]indan-2-yl]acetic acid]: in assay [1], the inhibition at 25 µM fell in the range of 60 to 75%. The molecule further showed a Ki in assay [2] of 50 to 200 nM.

For `CN(C)C1CN(c2ccc(-c3csc(CNC(=O)C4(CC(=O)O)Cc5ccccc5C4)n3)cc2)C1` [Example 27], the inhibition at 25 µM in assay [1] lay in the range of 60 to 75%. In addition, the Ki in assay [2] (Ki calculated from IC50, [S] = 250 µM, Km = 214 µM, 37°C, pH 7.4) was 50 to 200 nM.

In the case of `CN1CCN(c2cccc(-c3csc(CNC(=O)C4(CC(=O)O)Cc5ccccc5C4)n3)c2)CC1` [Example 28, 2-[2-[[4-[3-(4-methylpiperazin-1-yl)phenyl]thiazol-2-yl]methylcarbamoyl]indan-2-yl]acetic acid], the inhibition at 25 µM in assay [1] fell in the range of 60 to 75%. For the same molecule, the inhibition constant (Ki) in assay [2] fell in the range of 200 to 10000 nM.

Regarding `CN1C[C@@H]2CN(c3ccc(-c4csc(CNC(=O)C5(CC(=O)O)Cc6ccccc6C5)n4)cc3)C[C@@H]2C1` [Example 30, 2-[2-[[4-[4-[(3aS,6aR)-2-methyl-1,3,3a,4,6,6a-hexahydropyrrolo[3,4-c]pyrrol-5-yl]phenyl]thiazol-2-yl]methylcarbamoyl]indan-2-yl]acetic acid], in assay [1], the inhibition at 25 µM is 10 to 60%. This molecule showed a Ki in assay [2] of 200 to 10000 nM.

`COc1cc(N2CCN(C)CC2)ccc1-c1csc(CNC(=O)C2(CC(=O)O)Cc3ccccc3C2)n1` [Example 31, 2-[2-[[4-[2-methoxy-4-(4-methylpiperazin-1-yl)phenyl]thiazol-2-yl]methylcarbamoyl]indan-2-yl]acetic acid]: in assay [1], the inhibition at 25 µM lay within 60 to 75%. Moreover, the Ki in assay [2] fell in the range of 50 to 200 nM.

As for `COc1cc(N2CC(N(C)C)C2)ccc1-c1csc(CNC(=O)C2(CC(=O)O)Cc3ccccc3C2)n1` [Example 32, 2-[2-[[4-[4-[3-(dimethylamino)azetidin-1-yl]-2-methoxy-phenyl]thiazol-2-yl]methylcarbamoyl]indan-2-yl]acetic acid], in assay [1], the inhibition at 25 µM was more than 75%. This molecule had a Ki in assay [2] of 50 to 200 nM.
